Data taken from the NIST ThermoML archive (doi:10.1021/je400722h).
Numbers after ± are expanded uncertainties.

Experiment: xn = mol fraction of the nth substance listed
Settings: 101 kPa, Liquid; for speed of sound: Pulse-echo method; for mass density: Vibrating tube method

Cc1ccccc1Cl [2-chlorotoluene] + C1CCOCC1
Settings	mass density, 298.15 K [kg/m3]	mass density, 303.15 K [kg/m3]	mass density, 308.15 K [kg/m3]	speed of sound, 298.15 K [m/s]	speed of sound, 303.15 K [m/s]	speed of sound, 308.15 K [m/s]
x1 = 0.1156	906.77 ± 1	901.67 ± 1	896.57 ± 1	1274.6 ± 1.1	1252.7 ± 1	1230.7 ± 1
x1 = 0.1765	920.75 ± 1	915.67 ± 1	910.57 ± 1	1277 ± 1.1	1255.6 ± 1.1	1233.7 ± 1.1
x1 = 0.2342	933.65 ± 1	928.57 ± 1	923.48 ± 1	1279.3 ± 1.1	1258.1 ± 1.1	1236.6 ± 1.1
x1 = 0.2765	942.89 ± 1	937.81 ± 1	932.73 ± 1	1280.9 ± 1.1	1259.9 ± 1.1	1238.6 ± 1.1
x1 = 0.3305	954.43 ± 1	949.36 ± 1	944.29 ± 1	1282.9 ± 1.1	1262 ± 1.1	1241 ± 1.1
x1 = 0.3716	963.04 ± 1	957.97 ± 1	952.9 ± 1	1284.4 ± 1.1	1263.7 ± 1.1	1242.9 ± 1.1
x1 = 0.4235	973.69 ± 1	968.63 ± 1	963.56 ± 1	1286.2 ± 1.1	1265.7 ± 1.1	1245 ± 1.1
x1 = 0.4721	983.44 ± 1	978.39 ± 1	973.33 ± 1	1287.9 ± 1.1	1267.4 ± 1.1	1247 ± 1.1
x1 = 0.5216	993.16 ± 1	988.12 ± 1	983.08 ± 1	1289.4 ± 1.1	1269 ± 1.1	1249 ± 1.1
x1 = 0.5803	1004.4 ± 1	999.4 ± 1	994.39 ± 1	1291.2 ± 1.1	1271.1 ± 1.1	1251.1 ± 1.1
x1 = 0.6317	1014.1 ± 1	1009.1 ± 1	1004.1 ± 1	1292.6 ± 1.1	1272.7 ± 1.1	1252.8 ± 1.1
x1 = 0.6796	1022.8 ± 1	1017.9 ± 1	1012.9 ± 1	1293.9 ± 1.1	1274.1 ± 1.1	1254.5 ± 1.1
x1 = 0.7216	1030.4 ± 1	1025.4 ± 1	1020.5 ± 1	1294.8 ± 1.2	1275.3 ± 1.1	1255.7 ± 1.1
x1 = 0.7737	1039.6 ± 1	1034.7 ± 1	1029.7 ± 1	1296 ± 1.2	1276.7 ± 1.2	1257.3 ± 1.2
x1 = 0.8219	1047.9 ± 1	1043 ± 1	1038.1 ± 1	1296.8 ± 1.2	1277.8 ± 1.2	1258.6 ± 1.2
x1 = 0.8753	1057 ± 1	1052.1 ± 1	1047.2 ± 1	1297.7 ± 1.2	1279 ± 1.2	1260 ± 1.2
x1 = 0.9064	1062.2 ± 1	1057.3 ± 1	1052.4 ± 1	1298.1 ± 1.2	1279.5 ± 1.2	1260.7 ± 1.2
x1 = 0.9325	1066.5 ± 1	1061.6 ± 1	1056.7 ± 1	1298.3 ± 1.2	1279.9 ± 1.2	1261.4 ± 1.2

Cc1ccccc1Cl [2-chlorotoluene] + C1COCCO1
Settings	mass density, 298.15 K [kg/m3]	mass density, 303.15 K [kg/m3]	mass density, 308.15 K [kg/m3]	speed of sound, 298.15 K [m/s]	speed of sound, 303.15 K [m/s]	speed of sound, 308.15 K [m/s]
x1 = 0.0984	1033.4 ± 1	1027.7 ± 1	1022 ± 1	1338.2 ± 1.1	1316.6 ± 1.1	1295.1 ± 1.1
x1 = 0.1643	1036.9 ± 1	1031.3 ± 1	1025.6 ± 1	1333.2 ± 1.1	1312 ± 1.1	1290.8 ± 1.1
x1 = 0.2124	1039.5 ± 1	1033.9 ± 1	1028.3 ± 1	1329.9 ± 1.1	1308.9 ± 1.1	1287.9 ± 1.1
x1 = 0.2837	1043.3 ± 1	1037.8 ± 1	1032.3 ± 1	1325.3 ± 1.1	1304.6 ± 1.1	1284 ± 1.1
x1 = 0.3427	1046.3 ± 1	1040.9 ± 1	1035.5 ± 1	1321.8 ± 1.2	1301.5 ± 1.1	1281.2 ± 1.1
x1 = 0.3918	1048.9 ± 1	1043.5 ± 1	1038.2 ± 1	1319.1 ± 1.2	1299 ± 1.2	1279 ± 1.1
x1 = 0.4375	1051.2 ± 1	1045.9 ± 1	1040.6 ± 1	1316.8 ± 1.2	1296.9 ± 1.2	1277 ± 1.1
x1 = 0.4864	1053.6 ± 1	1048.4 ± 1	1043.1 ± 1	1314.5 ± 1.2	1294.8 ± 1.2	1275.1 ± 1.2
x1 = 0.5237	1055.5 ± 1	1050.3 ± 1	1045.1 ± 1	1312.8 ± 1.2	1293.2 ± 1.2	1273.8 ± 1.2
x1 = 0.5765	1058.1 ± 1	1052.9 ± 1	1047.7 ± 1	1310.7 ± 1.2	1291.2 ± 1.2	1271.9 ± 1.2
x1 = 0.6237	1060.4 ± 1	1055.2 ± 1	1050.1 ± 1	1308.8 ± 1.2	1289.6 ± 1.2	1270.4 ± 1.2
x1 = 0.6801	1063 ± 1	1057.9 ± 1	1052.8 ± 1	1306.9 ± 1.2	1287.7 ± 1.2	1268.7 ± 1.2
x1 = 0.7135	1064.6 ± 1	1059.5 ± 1	1054.4 ± 1	1305.8 ± 1.2	1286.7 ± 1.2	1267.8 ± 1.2
x1 = 0.7737	1067.4 ± 1	1062.3 ± 1	1057.2 ± 1	1304 ± 1.2	1285 ± 1.2	1266.3 ± 1.2
x1 = 0.8125	1069.2 ± 1	1064.1 ± 1	1059 ± 1	1302.9 ± 1.2	1284.1 ± 1.2	1265.4 ± 1.2
x1 = 0.8635	1071.4 ± 1	1066.4 ± 1	1061.4 ± 1	1301.7 ± 1.2	1283 ± 1.2	1264.4 ± 1.2
x1 = 0.9012	1073.1 ± 1	1068.1 ± 1	1063.1 ± 1	1300.8 ± 1.2	1282.2 ± 1.2	1263.8 ± 1.2
x1 = 0.9415	1074.9 ± 1	1069.9 ± 1	1064.9 ± 1	1299.9 ± 1.2	1281.5 ± 1.2	1263.3 ± 1.2

Cc1ccccc1Cl [2-chlorotoluene] + C1COCO1
Settings	mass density, 298.15 K [kg/m3]	mass density, 303.15 K [kg/m3]	mass density, 308.15 K [kg/m3]	speed of sound, 298.15 K [m/s]	speed of sound, 303.15 K [m/s]	speed of sound, 308.15 K [m/s]
x1 = 0.0902	1061.1 ± 1	1054.9 ± 1	1048.7 ± 1	1326.8 ± 1.1	1304.4 ± 1.1	1281.7 ± 1.1
x1 = 0.1536	1062.6 ± 1	1056.4 ± 1	1050.4 ± 1	1320 ± 1.1	1297.8 ± 1.1	1275.2 ± 1.1
x1 = 0.2167	1064 ± 1	1057.9 ± 1	1052 ± 1	1314.3 ± 1.1	1292.5 ± 1.1	1270.4 ± 1.1
x1 = 0.2734	1065.2 ± 1	1059.3 ± 1	1053.4 ± 1	1310.1 ± 1.1	1288.8 ± 1.1	1267 ± 1.1
x1 = 0.3169	1066.1 ± 1	1060.2 ± 1	1054.4 ± 1	1307.4 ± 1.1	1286.4 ± 1.1	1265.1 ± 1.1
x1 = 0.3843	1067.5 ± 1	1061.7 ± 1	1055.9 ± 1	1303.8 ± 1.1	1283.5 ± 1.1	1262.7 ± 1.1
x1 = 0.4301	1068.4 ± 1	1062.7 ± 1	1057 ± 1	1301.9 ± 1.1	1281.9 ± 1.1	1261.4 ± 1.1
x1 = 0.4831	1069.4 ± 1	1063.7 ± 1	1058.1 ± 1	1300.1 ± 1.1	1280.3 ± 1.1	1260.3 ± 1.1
x1 = 0.5278	1070.2 ± 1	1064.6 ± 1	1059 ± 1	1298.9 ± 1.1	1279.3 ± 1.1	1259.6 ± 1.1
x1 = 0.5834	1071.2 ± 1	1065.7 ± 1	1060.2 ± 1	1297.8 ± 1.1	1278.4 ± 1.1	1258.7 ± 1.1
x1 = 0.6265	1071.9 ± 1	1066.5 ± 1	1061 ± 1	1297.3 ± 1.1	1277.9 ± 1.1	1258.3 ± 1.1
x1 = 0.6793	1072.7 ± 1	1067.4 ± 1	1062 ± 1	1296.8 ± 1.1	1277.4 ± 1.1	1258 ± 1.1
x1 = 0.7315	1073.6 ± 1	1068.3 ± 1	1063 ± 1	1296.6 ± 1.2	1277.3 ± 1.2	1257.8 ± 1.1
x1 = 0.7829	1074.4 ± 1	1069.1 ± 1	1063.9 ± 1	1296.7 ± 1.2	1277.4 ± 1.2	1257.9 ± 1.2
x1 = 0.8242	1075 ± 1	1069.8 ± 1	1064.7 ± 1	1296.9 ± 1.2	1277.6 ± 1.2	1258.1 ± 1.2
x1 = 0.8565	1075.4 ± 1	1070.3 ± 1	1065.2 ± 1	1297.1 ± 1.2	1277.8 ± 1.2	1258.5 ± 1.2
x1 = 0.9013	1076 ± 1	1071 ± 1	1066 ± 1	1297.5 ± 1.2	1278.5 ± 1.2	1259.3 ± 1.2
x1 = 0.9325	1076.5 ± 1	1071.5 ± 1	1066.5 ± 1	1297.8 ± 1.2	1279 ± 1.2	1260.1 ± 1.2
x1 = 1	1077.3 ± 1	1072.5 ± 1	1067.6 ± 1	1298.7 ± 1.2	1280.7 ± 1.2	1262.7 ± 1.2
